Results published in BindingDB's records for doi:10.1021/acs.jmedchem.7b01670 (Vrije Universiteit Amsterdam, 2018).

Experiments:
Phosphodiesterase = molecular target: T1, Phosphodiesterase (Trypanosoma brucei, UniProt Q8WQX9); experiment: Inhibition of full length Trypanosoma brucei PDEB1 expressed in Sf21 insect cells using cAMP as substrate by scintillation proximity assay
T1 sequence (Q8WQX9 whole entry): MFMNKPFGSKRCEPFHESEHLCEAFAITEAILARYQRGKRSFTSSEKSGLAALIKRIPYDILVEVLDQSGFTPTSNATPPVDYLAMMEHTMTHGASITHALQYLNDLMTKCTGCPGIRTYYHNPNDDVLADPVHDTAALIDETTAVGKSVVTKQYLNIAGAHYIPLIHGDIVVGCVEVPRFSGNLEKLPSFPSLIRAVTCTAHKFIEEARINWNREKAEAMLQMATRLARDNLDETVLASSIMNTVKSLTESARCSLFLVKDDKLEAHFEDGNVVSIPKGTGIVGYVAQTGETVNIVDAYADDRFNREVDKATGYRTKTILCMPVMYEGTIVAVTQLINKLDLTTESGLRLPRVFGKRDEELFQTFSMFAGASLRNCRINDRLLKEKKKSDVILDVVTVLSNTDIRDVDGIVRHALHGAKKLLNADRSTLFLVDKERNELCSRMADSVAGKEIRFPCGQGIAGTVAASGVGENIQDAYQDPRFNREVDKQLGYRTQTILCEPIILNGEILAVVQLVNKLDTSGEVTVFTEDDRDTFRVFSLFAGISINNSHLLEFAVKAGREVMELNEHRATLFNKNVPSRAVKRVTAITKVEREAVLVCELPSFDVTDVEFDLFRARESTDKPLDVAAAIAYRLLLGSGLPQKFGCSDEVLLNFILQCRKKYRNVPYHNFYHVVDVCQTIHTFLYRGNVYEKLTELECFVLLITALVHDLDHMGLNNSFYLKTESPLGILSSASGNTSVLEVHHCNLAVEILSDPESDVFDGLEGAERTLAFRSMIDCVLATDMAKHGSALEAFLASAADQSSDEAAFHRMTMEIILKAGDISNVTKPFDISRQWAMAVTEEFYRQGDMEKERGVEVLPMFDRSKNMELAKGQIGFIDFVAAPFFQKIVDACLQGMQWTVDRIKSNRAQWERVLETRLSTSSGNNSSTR

[1] = molecular target: cAMP-specific 3',5'-cyclic phosphodiesterase 4B (Homo sapiens, UniProt Q07343); experiment: Inhibition of full length recombinant human PDE4B1 expressed in Sf21 insect cells using cAMP as substrate by scintillation proximity assay
Chain of cAMP-specific 3',5'-cyclic phosphodiesterase 4B (Q07343 whole entry): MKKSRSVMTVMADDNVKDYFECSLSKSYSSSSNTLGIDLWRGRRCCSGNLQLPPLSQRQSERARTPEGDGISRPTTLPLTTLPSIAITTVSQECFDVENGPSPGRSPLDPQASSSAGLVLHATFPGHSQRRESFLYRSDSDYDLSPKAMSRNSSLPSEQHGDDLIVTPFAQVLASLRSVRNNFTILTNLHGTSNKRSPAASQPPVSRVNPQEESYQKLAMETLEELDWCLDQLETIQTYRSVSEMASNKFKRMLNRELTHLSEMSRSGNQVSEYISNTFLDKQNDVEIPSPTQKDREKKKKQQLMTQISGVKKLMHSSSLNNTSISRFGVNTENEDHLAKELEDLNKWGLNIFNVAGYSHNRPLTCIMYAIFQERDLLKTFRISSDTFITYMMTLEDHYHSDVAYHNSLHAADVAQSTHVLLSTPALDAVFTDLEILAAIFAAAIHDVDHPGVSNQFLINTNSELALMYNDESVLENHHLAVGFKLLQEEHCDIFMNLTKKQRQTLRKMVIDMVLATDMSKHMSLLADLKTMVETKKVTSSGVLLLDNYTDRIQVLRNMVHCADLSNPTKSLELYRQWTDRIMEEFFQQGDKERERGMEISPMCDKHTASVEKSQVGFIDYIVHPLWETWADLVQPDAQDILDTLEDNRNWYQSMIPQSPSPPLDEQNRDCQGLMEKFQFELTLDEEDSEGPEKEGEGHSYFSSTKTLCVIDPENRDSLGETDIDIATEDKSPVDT

Ki (Phosphodiesterase) [µM]	Ki [1] [µM]	Structure (SMILES)
0.631	0.631	COc1ccc(C2=NN(C3CCCCCC3)C(=O)[C@@H]3CC=CC[C@H]23)cc1-c1ccc(C(=O)N2CNC(=O)C2)cc1
1	3.16	COc1ccc(C2=NN(C3CCCCCC3)C(=O)[C@@H]3CC=CC[C@H]23)cc1-c1ccc(C(=O)N2CCC(=O)C2)cc1
1.58	2.51	COc1ccc(C2=NN(C3CCCCCC3)C(=O)[C@@H]3CC=CC[C@H]23)cc1-c1ccc(C(=O)N2CC(=O)N(C)C2)cc1

Structure (SMILES)	Ki (Phosphodiesterase) [µM]	Ki [1] [µM]
COc1ccc(C2=NN(C3CCCCCC3)C(=O)[C@@H]3CC=CC[C@H]23)cc1-c1ccc(C(=O)NCC(N)=O)cc1	0.04	0.63
